For one series, the system named is St. pyogenes. The series can be described thus: In vitro antibacterial activity (MIC). In kind it is cell-based. The conditions noted are these: Streptococcus pyogenes.
In series [1] the test system is Staphylococcus aureus. The series can be described thus: In vitro MIC against bovine mastitis strains. Format: cell-based. Particulars: "OXFORD", Internal Ref. No. 6571, read-out: Approximate MIC.
Another series deals with Strep.Faecalis CN 478. Put plainly: In vitro antibacterial activity (MIC). Format: cell-based. Particulars: Enterococcus faecalis, CN478.
The target in series [2] is Dihydrofolate reductase (Escherichia coli, UniProt P0ABQ4). The series can be described thus: Dihydrofolate reductase inhibition. Format: biochemical, E. coli.
The subject of series [3] is N. gonorrhea. Put plainly: In vitro antibacterial activity versus TMP, Wellcome test. Format: cell-based. The conditions noted are these: activity relative to trimethoprim.
For series [4], the target named is Dihydrofolate reductase (Plasmodium berghei, UniProt Q27713). Put plainly: biochemical. The conditions noted are these: P. berghei enzyme; read-out: Dihydrofolate reductase inhibition, I50 x 10^8.
The test system of another series is Streptococcus agalactiae. Put plainly: In vitro MIC against bovine mastitis strains. Particulars: read-out: Approximate MIC. In kind it is cell-based. From the text: (§1) All organisms were isolated from the bovine udder.
The test system of series [5] is Streptococcus dysgalactiae. Put plainly: In vitro MIC against bovine mastitis strains. In kind it is cell-based. Particulars: read-out: Approximate MIC.
Excerpt: as §1

A further series concerns Streptococcus uberis. Put plainly: In vitro MIC against bovine mastitis strains. The conditions noted are these: Internal Ref. No. 359, isolated from the bovine udder, read-out: Approximate MIC. Format: cell-based.
Excerpt: as §1

Series [6] relates to Staphylococcus aureus. Put plainly: In vitro MIC against bovine mastitis strains. In kind it is cell-based. The conditions noted are these: read-out: Approximate MIC.
Excerpt: as §1

For another series, the system named is E. coli CN 314. Put plainly: In vitro antibacterial activity (MIC). Format: cell-based. The conditions noted are these: Escherichia coli, CN314.
Series [7] is described as follows: LD50 intraperitoneal in male rats. The conditions noted are these: rat, in vivo, ip. On the procedure:
The LD50's ( expressed in rng/kg intraperitoneal) of two compounds of the present invention were determined in male rats.

The next series deals with Staph.aureus CN 491. Put plainly: In vitro antibacterial activity (MIC). Format: cell-based. The conditions noted are these: Staphylococcus aureus, CN491.
For series [8], the system named is N. gonorrhea. Put plainly: In vitro antibacterial activity versus TMP, Difco test. Format: cell-based. The conditions noted are these: activity relative to trimethoprim.
For series [9], the target named is T1, Dihydrofolate reductase (Rattus norvegicus, UniProt Q920D2).
T1 construct: Rat liver; from tissue; host or cells: rat liver
T1 sequence (Q920D2 1-187): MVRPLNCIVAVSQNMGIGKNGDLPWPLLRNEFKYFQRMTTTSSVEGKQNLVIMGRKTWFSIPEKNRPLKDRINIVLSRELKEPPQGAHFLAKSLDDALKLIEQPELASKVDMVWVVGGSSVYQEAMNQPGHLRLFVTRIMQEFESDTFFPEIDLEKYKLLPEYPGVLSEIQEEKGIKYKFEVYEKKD
Put plainly: Dihydrofolate reductase inhibition. Format: biochemical, Rat liver.

Series [10] deals with Dihydrofolate reductase (Neisseria gonorrhoeae, UniProt P04174). The series can be described thus: biochemical. The conditions noted are these: N. gonorrhea enzyme; read-out: Dihydrofolate reductase inhibition, I50 x 10^8.

pIC50: −log10 of the molar value. In brackets after ≈: the same amount, converted by molar mass. Read-outs that look alike come from different tables or passages of the source. A value given as a limit tells only on which side of the number the result lay.

This is an account of results in patent EP0054756A2, “Antibacterial benzylpyrimidines” (THE WELLCOME FOUNDATION LIMITED, priority 1980, dated 1982).

One may read the MIC as the smallest concentration in the dilution series that meets the test's criterion for growth inhibition. A word on the LD50: it is the dose expected to kill half of the subjects tested. Read a low LD50 as greater toxicity. Turning to `COc1cccc(CCCOc2cc(Cc3cnc(N)nc3N)cc(OC)c2OC)c1` [compound 2, 2,4-Diamino-5-(3,4-dimethoxy-5-(3-(m-methoxyphenyl)propoxy)benzyl)pyrimidine], the MIC in the series on St. pyogenes (read-out: MIC St. pyogenes CN 10) was found to be 1 mg/L (≈ 2.36 µM); with St. pyogenes (read-out: MIC St. pyogenes S3640), 1 mg/L (≈ 2.36 µM); in the series with Staphylococcus aureus [1], 0.025 µM (≈ 0.0106 µg/mL); against Strep.Faecalis CN 478, 0.3 mg/L (≈ 0.707 µM); in the series on Streptococcus agalactiae (Internal Ref. No. 321, isolated from the bovine udder) it was 0.25 µM (≈ 0.106 µg/mL); with Streptococcus agalactiae (Internal Ref. No. 371, isolated from the bovine udder), 0.75 µM (≈ 0.318 µg/mL). For the same compound, the minimum inhibitory concentration (MIC) in series [5] (Internal Ref. No. 366, isolated from the bovine udder) was 0.75 µM (≈ 0.318 µg/mL); in [5] (Internal Ref. No. 367, isolated from the bovine udder), 0.25 µM (≈ 0.106 µg/mL); in the series with Streptococcus uberis, 2.5 µM (≈ 1.06 µg/mL); in the series on Staphylococcus aureus [6] (Internal Ref. No. 316, isolated from the bovine udder) it was 0.025 µM (≈ 0.0106 µg/mL); with Staphylococcus aureus [6] (Internal Ref. No. 317, isolated from the bovine udder), 0.025 µM (≈ 0.0106 µg/mL); with Staphylococcus aureus [6] (Internal Ref. No. 348, isolated from the bovine udder) it was 0.025 µM (≈ 0.0106 µg/mL). The MIC with Staphylococcus aureus [6] (Internal Ref. No. 349, isolated from the bovine udder) came out at 0.025 µM (≈ 0.0106 µg/mL); in the series on Staphylococcus aureus [6] (Internal Ref. No. 352, isolated from the bovine udder), 0.075 µM (≈ 0.0318 µg/mL); in the series on Staphylococcus aureus [6] (Internal Ref. No. 353, isolated from the bovine udder), 0.025 µM (≈ 0.0106 µg/mL); against E. coli CN 314 it was 10 mg/L (≈ 23.6 µM); against Staph.aureus CN 491, 0.3 mg/L (≈ 0.707 µM). Further, the pIC50 against Dihydrofolate reductase [2] was 7.24; at Dihydrofolate reductase [4] it was 7.24; against Dihydrofolate reductase [9] it was 4.08; on Dihydrofolate reductase [10], 7.74. In addition, the “Act., vs TMP N. gonorrhea Wellcome test” value with N. gonorrhea [3] is 3.20. Also, the LD50 in [7] was greater than 100 mg/kg. In addition, the “Act., vs TMP N. gonorrhea Difco test” value in the series on N. gonorrhea [8] stood at 9.63.
